Legend:
[1] = sweetness enhancement detection level; conditions: in vivo
Text: (§1) There is also provided an orally-receivable or -ingestible composition comprising an off-note-masking proportion of 1-(2-hydroxyphenyl)-3-(pyridin-4-yl)propane-1-one or a salt thereof 1-(2-hydroxyphenyl)-3-(pyridin-4-yl)propane-1-one (hereinafter referred to as “Compound 1”) is disclosed in United States published application No. 2010/272656. In this publication, the compound is described as an effective sweetness enhancer. It is a surprising feature of this disclosure that the same compound can deliver an off-note- or off-taste-masking effect at a concentration far below the concentration at which it is perceived as sweet. The minimum level at which the sweetness enhancement effect of Compound 1 can be detected is 35 ppm, but the off-note- or off-taste-masking effect of the masker can be as low as 2.5 ppm. A practical maximum for off-note masking is 10 ppm.

[2] = off-note / off-taste masking, lowest effective level; conditions: in vivo
Text: as §1

[3] = blind bench-top tasting panel, soy yogurt; assay type: in vivo
Text: (§2) The following compositions are made and tested blind. Using a blind bench-top tasting panel (consisting of 4 to 8 panelists), panelists were asked to record the sensory attribute differences between the control and example samples, specifically focusing on off-notes (reduction or differences).
Soy Yogurt (O'Soy Organic Soy Yogurt Strawberry Flavor—5 g Protein Per 4 oz Serving)

[4] = blind bench-top tasting panel, fortified mayonnaise; assay type: in vivo
Experimental: as §2
Fortified Mayonnaise (Smart Balance Omega Plus Light Mayonnaise Dressing—Omega-3 (500 Mg Per 15 g Serving) and Plant Sterols (100 Mg Per 15 g Serving)

[5] = blind bench-top tasting panel, OTC syrup; assay type: in vivo
Experimental: The following compositions are made and tested blind. Using a blind bench-top tasting panel (consisting of 4 to 8 panelists), panelists were asked to record the sensory attribute differences between the control and example samples, specifically focusing on off-notes (reduction or differences). Over-the-Counter (OTC) Syrup (Kroger Daytime Cold/Flu Relief (Acetaminophen 325 mg per 15 mL; Dextromethorphan HBr 10 mg per 15 mL; Phenylephrine HCl 5 mg per 15 mL))

[6] = blind bench-top tasting panel, proteinaceous supplement; assay type: in vivo
Text: as §2
Proteinaceous Supplement (GNC Pro Performance 100% Whey Protein)

[7] = blind bench-top tasting panel, cocoa; assay type: in vivo
Text: as §2
Cocoa (Dilute 10% in Water to Consume) (Kroger Cocoa Unsweetened)

[8] = 0.002% by weight in cocoa (unsweetened)
[9] = 0.0015% by weight in whey protein supplement

Row | SMILES | minimum level at which the sweetness enhancement effect can be detected [1] | off-note- or off-taste-masking effect can be as low as [2] | panelist preference over the control ([3]; 0.002% by weight in soy yogurt) | panelist preference over the control ([4]; 0.00025% by weight in fortified mayonnaise) | panelist preference over the control ([5]; 0.003% by weight in OTC syrup) | panelist preference over the control ([6]; 0.003% by weight in whey protein supplement) | panelist preference over the control [7, 8] | panelist preference over the control ([4]; 0.0005% by weight in fortified mayonnaise) | panelist preference over the control [6, 9] | panelist preference over the control ([3]; 0.001% by weight in soy yogurt) | panelist preference over the control ([4]; 0.001% by weight in fortified mayonnaise) | panelist preference over the control ([5]; 0.002% by weight in OTC syrup) | panelist preference over the control ([7]; 0.001% by weight in cocoa (unsweetened))
1 | O=C(CCc1ccncc1)c1ccccc1O [Compound 1, 1-(2-hydroxyphenyl)-3-(pyridin-4-yl)propane-1-one] | 35 ppm | 2.5 ppm | preferred | preferred | preferred | preferred | preferred |  |  |  |  |  | 
2 | CC1CCC(CCCC(=O)O)C1(C)C (centres unmarked) [Compound 2, 4-[2,2,3-trimethyl-cyclopentyl]-butanoic acid] |  |  | preferred |  | preferred |  | preferred | preferred | preferred |  |  |  | 
3 | CCc1c(C)c2ccc(OC(C)C(=O)O)c(C)c2oc1=O (centres unmarked) [Compound 3, 2-[(3-ethyl-4,8-dimethyl-2-oxo-2H-chromen-7-yl)oxy]propanoic acid] |  |  |  |  |  |  |  |  | preferred | preferred | preferred | preferred | preferred

Source: patent US20140005153A1, “Off-Note Masking” (GIVAUDAN S. A., priority 2011, published 2014)
